Data taken from paper PMC13183915, “A platinum butterfly effect: small changes turn an anticancer drug into a non-toxic metalloantibiotic with in vivo efficacy” (npj Antimicrobials and Resistance, 2026).
Values joined by “and” are separate entries in the source; they are usually repeats but may differ in a detail not shown here. Equal values may be shown once. Read-outs that look alike come from different tables or passages of the source.

What was measured:
[1] = system: methicillin-sensitive Staphylococcus aureus (MSSA), clinical isolate; test: MIC assay, MSSA clinical isolate; type: cell-based; details: MSSA clinical isolate
[2] = system: Bacillus subtilis MW168; test: MIC assay, B. subtilis MW168; type: cell-based; details: B. subtilis MW168
[3] = system: MSSA ATCC 29213; test: Broth microdilution MIC, MSSA ATCC 29213; type: cell-based, S. aureus
Protocol: (§1) The data is given in supporting information (Table S5). Before starting the experiment, a single colony was picked from MHA plate, inoculated in MHBII and incubated overnight at 37 °C with shaking for 18–24 h to get the starter culture. Antibiotic susceptibility testing was conducted according to the CLSI (Clinical & Laboratory Standards Institute) guidelines using the broth microdilution assay. 10 mg/mL stock solutions of test compounds were prepared in DMSO. Bacterial cultures were inoculated in MHBII and optical density (OD) was measured at 600 nm, followed by dilution to achieve ~10^6 CFU/mL. The compounds were tested from 64 to 0.5 mg/L in two-fold serial diluted fashion with 2.5 μL of each concentration added to well of a 96-well round bottom microtiter plate. Later, 97.5 μL of bacterial suspension was added to each well containing either test compound or appropriate controls. […] The MIC is defined as the lowest concentration of the compound at which there is absence of visible growth. For each test compound, MIC determinations were carried out independently three times using duplicate samples.

[4] = system: MRSA NRS 191; test: Broth microdilution MIC, MRSA NRS 191; type: cell-based, S. aureus; details: MRSA NRS 191
Protocol: as §1

[5] = system: VRSA VRS 1; test: Broth microdilution MIC, VRSA VRS 1; type: cell-based, S. aureus; details: VRSA VRS 1
Protocol: as §1

[6] = system: E. coli ATCC 25922; test: Broth microdilution MIC, E. coli ATCC 25922; type: cell-based
Protocol: as §1

[7] = system: K. pneumoniae BAA 1705; test: Broth microdilution MIC, K. pneumoniae BAA 1705; type: cell-based, Klebsiella pneumoniae
Protocol: as §1

[8] = system: Vero cells; test: Cytotoxicity against Vero cells (MTT assay); type: cell-based, African Green Monkey; details: 72 h
Protocol: Cell toxicity was performed against Vero cells using the MTT assay. ~10^3 cells/well were seeded in 96 well plate and incubated at 37 °C with 5% CO2 atmosphere. […] After the incubation was over, MTT was added in each well, incubated at 37 °C for further 4 h, residual medium was discarded, 0.1 mL of DMSO was added to solubilize the formazan crystals and OD540 was taken for the calculation of IC50. Doxorubicin was used as positive control and each experiment was repeated in triplicate.

[9] = system: HEK293T cells; type: cell-based, Human
Protocol: The control for the experiments was DMSO. HEK293T cells were cultivated in DMEM high glucose supplemented with 10% heat-inactivated fetal bovine serum, 100 U/mL of penicillin and streptomycin and maintained at a temperature of 37 °C with 5% CO2. Initially, 4000/well of cells were seeded into 96-well plates and incubated for 24 h before being exposed to compounds at concentrations ranging from 0.78, 50, and 100 µM. After 24 h of incubation, the compounds were added and serially diluted and incubated for 24 and 48 h at 37 °C 5% CO2, the cells were stained with alamar Blue, and the fluorescence excitation/ emission 540 nm/590 nm was measured using 96 well-plate reader. CC50 is defined as the lowest concentration of compound which leads to a 50% reduction in cell viability compared to untreated and DMSO control. Each experiment was repeated in triplicate.

[10] = system: human red blood cells (RBC); test: Hemolysis assay in hRBCs; type: cell-based; details: 4 hours at 20 °C
[11] = system: MreB (B. subtilis MW10, Pxyl-gfp-mreB); test: MreB mobility (cell wall synthesis reporter); type: cell-based, Bacillus subtilis; details: 3.12 µM Pt1, 25 µM Pt8; 30 and 60 min
Protocol: (§2) B. subtilis strains were grown in LB containing appropriate inducer concentrations as specified in Table S10. After reaching an OD600 of 0.3, cultures were split and treated with antibiotics. Samples were withdrawn after 30 and 60 min of treatment, spotted on glass slides covered with 1% agarose films, and immediately imaged.
Figure S7: Fluorescence overlays of B. subtilis MW10 (Pxyl-gfp-mreB). Cultures were treated […]
overlays of two consecutive images captured from the same cells in a 30-second interval.
Images were false-colored in blue and orange with overlapping signal appearing white. Distinct blue and orange spots indicate movement of MreB foci. Entirely white images indicate a stop of MreB moility (vancomycin control). Scale bar 2 µm.
(§3) (1 picture or pasted object on this page, not shown here)

[12] = system: FtsZ (B. subtilis 2020, Pxyl-gfp-ftsZ); test: Localization of FtsZ (cell division reporter); type: cell-based, Bacillus subtilis; details: 3.12 µM Pt1, 25 µM Pt8; 30 and 60 min
Protocol: as §2
Figure S8: Localization of FtsZ in B. subtilis 2020 (Pxyl-gfp-ftsZ). Cultures were treated with
as §3

[13] = system: RpoC-GFP (B. subtilis 1048); test: Localization of RpoC-GFP (transcription reporter); type: cell-based, Bacillus subtilis; details: 3.12 µM Pt1, 25 µM Pt8; 30 and 60 min
Protocol: as §2
Figure S9: Localization of RpoC-GFP (B. subtilis 1048). Cultures were treated with 3.12 µM
as §3

[14] = system: RpsB-GFP (B. subtilis 1049); test: Localization of RpsB-GFP (translation reporter); type: cell-based, Bacillus subtilis; details: 3.12 µM Pt1, 25 µM Pt8; 30 and 60 min
Protocol: as §2
Figure S10: Localization of RpsB-GFP (B. subtilis 1049). Cultures were treated with 3.12 µM
as §3

[15] = system: B. subtilis 168CA; test: ROS scavenger assay (modified MIC assay); type: cell-based, Bacillus subtilis
Protocol: LB media were prepared to contain either 10 mM tiron, 150 mM thiourea, 10 mM tiron and 150 mM thiourea, or no […]. Serial two-fold dilutions of the different antibiotics were prepared in the respective media and transferred to 96-well plates. […] The OD600 was meassured in a BMG Clariostar Plus plate reader.

[16] = system: S. aureus ATCC 29213; test: Resistance induction by serial passage; type: cell-based; details: after 36 days at ½ MIC
Protocol: The MICs of the passaged cultures were determined every 3 days and compared to that of wild type S. aureus ATCC 29213. MIC changes were recorded for 36 passages.

[17] = system: E. coli tolC; set-up: method as in PMID 34018686; details: efflux-impaired mutant; cited from earlier work
[18] = system: Galleria mellonella infection model; set-up: method as in PMID 34018686; details: systematic infection model; cited from earlier work

SMILES: C1=C\CC/C=C\CC/1.[Cl][Pt][Cl] [Pt1]
- MIC [1]: 3.13 to 6.25 µM
- MIC [2]: 6.25 µM
- MIC ([3]; MSSA ATCC 29213): 0.67 µM
- MIC ([3]; MSSA ATCC 29213, Table S5): 0.25 mg/L
- MIC ([3]; S.aureus ATCC 29213 (unpassaged), Table S9): 0.0625 mg/L
- MIC [4]: 0.25 µg/mL and 0.67 µM
- MIC [5]: 0.67 to 1.34 µM
- MIC [6]: > 64 mg/L
- MIC [7]: > 64 mg/L
- IC50 [8]: > 134 µM
- IC50 ([9]; 24 h): 74.1 ± 4.1 µM
- IC50 ([9]; 48 h): 65.3 ± 2.7 µM
- HC50 [10]: >200 µM
- MreB mobility [11]: neither Pt1 nor Pt8 affected MreB mobility
- localization of FtsZ [12]: remained unaffected
- localization of RpoC [13]: Neither protein showed a distinct phenotype
- localization of RpsB [14]: Neither protein showed a distinct phenotype
- MIC fold change (increase) with scavenger ([15]; medium containing 150 mM thiourea (hydroxyl radical scavenger)): tenfold
- MIC fold change (increase) with scavengers ([15]; medium containing both tiron and thiourea): 13 fold
- MIC after passaging [16]: 0.25 mg/L
- antibacterial activity [17]: inactive
- in vivo activity [18]: no in vivo activity was observed
